Measurements: PMC10072198, “A covalent inhibitor targeting the papain-like protease from SARS-CoV-2 inhibits viral replication” (RSC Advances, 2023)
“Also recorded” adds a separate entry of the source.

Tests used:
SARS-CoV PLpro = settings: cited from earlier work
SARS-CoV2 = settings: mouse, in vivo, po; cited from earlier work
PLpro from SARS-CoV-2 = PLpro from SARS-CoV-2 (Severe acute respiratory syndrome coronavirus 2, UniProt P0DTD1); assay: Fluorescence based PLpro activity assay (R-L-R-G-G-AMC substrate); type: biochemical; settings: read-out: IC50 (PLpro inhibition)
[1] = system: SARS-CoV-2 (US/WA1/2020 isolate); assay: SARS-CoV-2 infection of cells (dsRNA staining, RT-qPCR of viral RNA); type: cell-based; settings: for inhibition of SARS-CoV-2 replication in cells (in words): Calu-3 and/or Vero E6 cells
SARS-CoV-2 Mpro(3CL) = SARS-CoV-2 Mpro(3CL) (Severe acute respiratory syndrome coronavirus 2, UniProt P0DTD1); assay: Fluorescence based Mpro(3CL) activity assay; type: biochemical
Protocol: Fluorescence based Mpro(3CL) activity assays
The ability of compounds 1, 19 and 20 to inhibit Mpro was determined using SensoLyte® 520 SARS-CoV-2 3CL Protease Activity Assay Kit (Anaspec), following the manufacturer’s instructions. Briefly, 40 µL diluted Mpro enzyme solution was added to a flat-bottom 96-well plate.
10 µL of varying concentrations of test compounds or GC 376 solution (an Mpro inhibitor) was (1 picture or pasted object on this page, not shown here) […]
(§1) subsequently added to the enzyme solution. The mixed solutions were incubated at room temperature for 20 min. 50 µL of Mpro protease substrate solution was added to each well, followed by 30 min incubation at 37 °C. The Mpro activity was detected by measuring the fluorescence emission intensity λ excitation=490 nm; λ emission=520nm.
(§2) Compound concentration µM
(§3) Fluorescence based PLpro activity assay in the presence of […] (DTT) and […]
(§4) PLpro inhibition assays were performed in the presence of 5 mM DTT and GSH to determine if […]
(§5) PLpro protease activity was measured with peptide substrate x-x-G-G-AMC (Bachem) in the presence or absence of 5 mM DTT and GSH.
(§6) PLpro was added into a black, flat-bottom 96-well plate at a final concentration of 50 nM with reaction buffer [150 mM NaCl, 20 mM HEPES, 0.1mg/mL BSA, pH 7.5] with or without 5 mM DTT […]
(§7) 0-80 µM for 20 min at room temperature. The enzyme activity assay was initiated by mixing the x-x-G-G-AMC probe at a final 50 µM and incubating for another 20 min at room temperature. The reaction was ended by adding 1 µL of aqueous citric acid. The PLpro activity was detected by measuring the fluorescence emission intensity λ excitation=360 nm; λ emission=460nm.

[2] = Determination of GSH t1/2 values; settings: buffer, pH 7.4
in vitro = settings: human
PLpro [3] = target: T1, PLpro (Severe acute respiratory syndrome coronavirus 2, UniProt P0DTD1); assay: PLpro activity assay in the presence of DTT and GSH; type: biochemical, SARS-CoV-2; settings: 5 mM glutathione or 5 mM DTT
Protocol: as §1, §2, §3, §4, §5, §6, §7

PLpro [4] = target: T1, PLpro; assay: PLpro irreversibility test (pre-incubation then dilution); type: biochemical, SARS-CoV-2
Text: All error bars represent the standard error of the mean for n = 3 replicates.

Row | SMILES | IC50 (PLpro from SARS-CoV-2) [µM] | inhibition of SARS-CoV-2 replication in cells (in words) [1] | inhibition of Mpro (in words) (SARS-CoV-2 Mpro(3CL)) | CC50 (in vitro) [µM] | further results
1 | Cc1ccc(N)cc1C(=O)N[C@H](C)c1cccc2ccccc12 [GRL-0617] | – | – | – | – | IC50 (SARS-CoV PLpro): […]; antiviral activity against SARS-CoV2 in mice (SARS-CoV2): moderate antiviral activity
2 | O=C(CCl)Nc1cc2c(cc1Br)CCC(=O)N2 [Compound 20] | 6 | no inhibitory activity against SARS-CoV-2; also recorded: did not inhibit viral replication | no interaction | – | –
3 | O=C1COc2cc([N+](=O)[O-])c(NC(=O)CCl)cc2N1 [Compound 19] | 5 | no inhibitory activity against SARS-CoV-2; also recorded: did not inhibit viral replication | no interaction | – | –
4 | O=C(NCCc1ccc(F)cc1)n1ccnc1 [Compound 4] | 2.5 | – | – | > 500 | half-life at 0.05 mM [2]: 13.4 min
5 | O=S(=O)(F)c1cncc(Cl)n1 [Compound 5] | 1.7 | – | – | > 500 | –
6 | C=CS(=O)(=O)c1nc2ccccc2s1 [Compound 6] | 1 | – | – | – | –
7 | Cn1ncc(C(=O)CCl)n1 [Compound 3] | 0.3 | not effective in cells | – | 62.5 | –
8 | O=C(CCl)Nc1ccc2c(c1)NC(=O)CO2 [Compound 1] | 18 | blocked SARS-CoV-2 replication in both cell lines; also recorded: inhibited viral replication in both cell lines | did not inhibit; also recorded: no interaction | – | PLpro inhibition in the presence of thiols (in words) (PLpro [3]): able to inhibit PLpro; IC50 ([1]; Severe acute respiratory syndrome coronavirus 2, Calu-3 and Vero E6 cells, 72 hours, read-out: IC50 for inhibiting viral replication): < 20 µM; PLpro inhibition without pre-incubation (PLpro [4]; 500 nM, without pre-incubation at 50 μM): no inhibition; PLpro inhibition after pre-incubation and dilution (PLpro [4]; pre-incubated at 50 μM for 1 hour, then diluted to 500 nM): complete inhibition
9 | O=C(CCl)Nc1ncc([N+](=O)[O-])s1 [Compound 2] | 13 | – | – | – | –
